Assay results taken from patent US8859291B2, “Methods for target molecule detection using siderophores and related compositions” (PerkinElmer LAS, Inc., priority 2004, dated 2014).

Tested on: deferoxamine-gallium (III) cation capture agent
Assay: AlphaScreen proximity assay: binding of biotinylated target molecules to deferoxamine-gallium (III) cation acceptor beads
Method: To prepare desferrioxamine complexed with gallium (III) cation and desferrioxamine complexed with iron (III), as a capture agents attached to a plastic bead support, desferrioxamine was first attached to plastic beads as follows: 5 mg of deferoxamine, 250 ul of raw AlphaScreen™ acceptor beads (at 20 mg/ml), 6 ul of TWEEN™ 20 detergent (at 10% in water), 50 ul of sodium cyanoborohydride (at 25 mg/ml in water) and 695 ul of MES 0.1 M, pH 6.0 were mixed. The mixture was incubated overnight at 37° C. in an agitating water bath. The following morning, 50 ul of carboxymethoxylamine (at 65 mg/ml in water, pH 5) was added, and the mixture was incubated for 1 hour at 37° C. The beads were then centrifuged (30 minutes at 13,000 rpm), washed twice with TRIS buffer (0.1 M, pH 8.0).
To form a complex of desferrioxamine with transition metal cations, the beads were resuspended in HEPES buffer (25 mM, pH 7.4) containing 100 mM gallium (III) or iron (III) chloride. After 1 hour of incubation, the beads were centrifuged, washed twice with HEPES buffer (25 mM pH 7.4) and resuspended in HEPES buffer. Sonication optionally can be used to eliminate aggregates of beads. […]
The ability of deferoxamine-gallium (III) cation capture agents to bind to target molecules was confirmed using AlphaScreen™ assays. […] Alternatively, competition or cleavage assays can be read as signal reduction. […]

Substance: biotin-phosphoinositide-3,4,5-trisphosphate [biotin-PIP3]
- concentration at which maximal signal was not yet reached: > 1 µM
- concentration at which detection starts (HEPES buffer, streptavidin donor beads, triplicate): around 300 pM
